# ChEMBL document CHEMBL1275576, “In vitro activity of tomopenem (CS-023/RO4908463) against anaerobic bacteria” (Antimicrob Agents Chemother, 2009)
# Experiments:
# Format in all cases: functional
# Capnocytophaga ochracea = assay: Antimicrobial activity against Capnocytophaga ochracea GAI 5586 by agar dilution method in presence of 5% laked sheep blood
# Clostridium septicum = assay: Antimicrobial activity against Clostridium septicum ATCC 12464 by agar dilution method in presence of 5% laked sheep blood
# [1] = test system: Paeniclostridium sordellii; assay: Antimicrobial activity against Clostridium sordellii ATCC 9714 by agar dilution method in presence of 5% laked sheep blood; conditions: Paraclostridium sordellii
# Atopobium parvulum = assay: Antimicrobial activity against Atopobium parvulum VPI 0546 by agar dilution method in presence of 5% laked sheep blood; conditions: Lancefieldella parvula
# Campylobacter gracilis = assay: Antimicrobial activity against Campylobacter gracilis JCM 8538 by agar dilution method in presence of 5% laked sheep blood
# [2] = Antimicrobial activity against Veillonella dispar ATCC 17748 by agar dilution method in presence of 5% laked sheep blood
# [3] = test system: Fusobacterium necrophorum; assay: Antimicrobial activity against Fusobacterium necrophorum ATCC 25286 by agar dilution method in presence of 5% laked sheep blood
# [4] = Antimicrobial activity against Bifidobacterium adolescentis ATCC 15703 by agar dilution method in presence of 5% laked sheep blood
# Prevotella intermedia = assay: Antimicrobial activity against Prevotella intermedia ATCC 25611 by agar dilution method in presence of 5% laked sheep blood
# Prevotella denticola = assay: Antimicrobial activity against Prevotella denticola GAI 5490 by agar dilution method in presence of 5% laked sheep blood
# Schaalia odontolytica = assay: Antimicrobial activity against Actinomyces odontolyticus GAI 91002 by agar dilution method in presence of 5% laked sheep blood
# [5] = test system: Desulfovibrio desulfuricans; assay: Antimicrobial activity against Desulfovibrio desulfuricans ATCC 29577 by agar dilution method in presence of 5% laked sheep blood
# Prevotella bivia = assay: Antimicrobial activity against Prevotella bivia ATCC 29303 by agar dilution method in presence of 5% laked sheep blood; conditions: DSM 20514
# [6] = test system: Streptococcus intermedius; assay: Antimicrobial activity against Streptococcus intermedius ATCC 27335 by agar dilution method in presence of 5% laked sheep blood
# Bacteroides uniformis = assay: Antimicrobial activity against Bacteroides uniformis ATCC 8492 by agar dilution method in presence of 5% laked sheep blood
# [7] = test system: Lactiplantibacillus plantarum; assay: Antimicrobial activity against Lactobacillus plantarum JCM 1149 by agar dilution method in presence of 5% laked sheep blood
# Bacteroides fragilis [8] = assay: Antimicrobial activity against carbapenemase-producing Bacteroides fragilis GAI 30079 by agar dilution method in presence of 5% laked sheep blood
# [9] = test system: Lactobacillus acidophilus; assay: Antimicrobial activity against Lactobacillus acidophilus JCM 1132 by agar dilution method in presence of 5% laked sheep blood
# [10] = test system: Limosilactobacillus fermentum; assay: Antimicrobial activity against Lactobacillus fermentum JCM 1173 by agar dilution method in presence of 5% laked sheep blood
# Gemella morbillorum = assay: Antimicrobial activity against Gemella morbillorum ATCC 27824 by agar dilution method in presence of 5% laked sheep blood
# Bifidobacterium bifidum = assay: Antimicrobial activity against Bifidobacterium bifidum JCM 1255 by agar dilution method in presence of 5% laked sheep blood
# Fusobacterium varium = assay: Antimicrobial activity against Fusobacterium varium ATCC 8501 by agar dilution method in presence of 5% laked sheep blood
# Lacticaseibacillus casei = assay: Antimicrobial activity against Lactobacillus casei subsp. casei JCM 1134 by agar dilution method in presence of 5% laked sheep blood
# Veillonella parvula = assay: Antimicrobial activity against Veillonella parvula ATCC 10790 by agar dilution method in presence of 5% laked sheep blood
# Anaerococcus prevotii = assay: Antimicrobial activity against Anaerococcus prevotii ATCC 9321 by agar dilution method in presence of 5% laked sheep blood
# [11] = test system: Bacteroides thetaiotaomicron; assay: Antimicrobial activity against Bacteroides thetaiotaomicron ATCC 29741 by agar dilution method in presence of 5% laked sheep blood
# Bacteroides ovatus = assay: Antimicrobial activity against Bacteroides ovatus ATCC 8483 by agar dilution method in presence of 5% laked sheep blood
# Peptoniphilus indolicus = assay: Antimicrobial activity against Peptoniphilus indolicus GAI 0915 by agar dilution method in presence of 5% laked sheep blood
# Hoylesella oralis = assay: Antimicrobial activity against Prevotella oralis ATCC 33269 by agar dilution method in presence of 5% laked sheep blood
# Bilophila wadsworthia = assay: Antimicrobial activity against Bilophila wadsworthia WAL 7959 by agar dilution method in presence of 5% laked sheep blood
# [12] = test system: Peptoniphilus asaccharolyticus; assay: Antimicrobial activity against Peptoniphilus asaccharolyticus WAL 3218 by agar dilution method in presence of 5% laked sheep blood
# [13] = test system: Propionibacterium granulosum; assay: Antimicrobial activity against Propionibacterium granulosum ATCC 25564 by agar dilution method in presence of 5% laked sheep blood; conditions: Cutibacterium granulosum
# Clostridioides difficile = assay: Antimicrobial activity against Clostridium difficile GAI 10029 by agar dilution method in presence of 5% laked sheep blood
# Cutibacterium acnes = assay: Antimicrobial activity against Propionibacterium acnes ATCC 11828 by agar dilution method in presence of 5% laked sheep blood
# Bacteroides fragilis [14] = assay: Antimicrobial activity against Bacteroides fragilis GAI 5562 by agar dilution method in presence of 5% laked sheep blood
# [15] = test system: Peptostreptococcus anaerobius; assay: Antimicrobial activity against Peptostreptococcus anaerobius ATCC 27337 by agar dilution method in presence of 5% laked sheep blood
# Eggerthella lenta = assay: Antimicrobial activity against Eggerthella lenta ATCC 25559 by agar dilution method in presence of 5% laked sheep blood
# [16] = Antimicrobial activity against Parabacteroides distasonis ATCC 8503 by agar dilution method in presence of 5% laked sheep blood
# [17] = test system: Campylobacter ureolyticus; assay: Antimicrobial activity against Bacteroides ureolyticus NCTC 10941 by agar dilution method in presence of 5% laked sheep blood
# Bifidobacterium breve = assay: Antimicrobial activity against Bifidobacterium breve ATCC 15700 by agar dilution method in presence of 5% laked sheep blood
# Bacteroides fragilis [18] = assay: Antimicrobial activity against carbapenemase-producing Bacteroides fragilis GAI 30144 by agar dilution method in presence of 5% laked sheep blood
# [19] = test system: Staphylococcus saccharolyticus; assay: Antimicrobial activity against Staphylococcus saccharolyticus ATCC 14953 by agar dilution method in presence of 5% laked sheep blood
# [20] = test system: Streptococcus constellatus; assay: Antimicrobial activity against Streptococcus constellatus ATCC 27923 by agar dilution method in presence of 5% laked sheep blood
# [21] = Antimicrobial activity against Bifidobacterium longum subsp. longum ATCC 15707 by agar dilution method in presence of 5% laked sheep blood
# Thomasclavelia ramosa = assay: Antimicrobial activity against Clostridium ramosum ATCC 25582 by agar dilution method in presence of 5% laked sheep blood
# Lactobacillus salivarius = assay: Antimicrobial activity against Lactobacillus salivarius subsp. salivarius JCM 1231 by agar dilution method in presence of 5% laked sheep blood; conditions: Ligilactobacillus salivarius
compound,measurement,setting,value
Cc1ncc([N+](=O)[O-])n1CCO [METRONIDAZOLE],MIC,Capnocytophaga ochracea,1 µg/mL
same,MIC,Clostridium septicum,1 µg/mL
same,MIC,[1],1 µg/mL
same,MIC,Atopobium parvulum,0.5 µg/mL
same,MIC,Campylobacter gracilis,0.5 µg/mL
same,MIC,[2],2 µg/mL
same,MIC,[3],0.125 µg/mL
same,MIC,[4],64 µg/mL
same,MIC,Prevotella intermedia,1 µg/mL
same,MIC,Prevotella denticola,0.25 µg/mL
same,MIC,Schaalia odontolytica,16 µg/mL
same,MIC,[5],0.06 µg/mL
same,MIC,Prevotella bivia,2 µg/mL
same,MIC,[6],> 128 µg/mL
same,MIC,Bacteroides uniformis,0.5 µg/mL
same,MIC,[7],> 128 µg/mL
same,MIC,Bacteroides fragilis [8],1 µg/mL
same,MIC,[9],> 128 µg/mL
same,MIC,[10],> 128 µg/mL
same,MIC,Gemella morbillorum,> 128 µg/mL
same,MIC,Bifidobacterium bifidum,4 µg/mL
same,MIC,Fusobacterium varium,0.25 µg/mL
same,MIC,Lacticaseibacillus casei,> 128 µg/mL
same,MIC,Veillonella parvula,2 µg/mL
same,MIC,Anaerococcus prevotii,2 µg/mL
same,MIC,[11],1 µg/mL
same,MIC,Bacteroides ovatus,2 µg/mL
same,MIC,Peptoniphilus indolicus,0.5 µg/mL
same,MIC,Hoylesella oralis,0.125 µg/mL
same,MIC,Bilophila wadsworthia,0.06 µg/mL
same,MIC,[12],1 µg/mL
same,MIC,[13],> 128 µg/mL
same,MIC,Clostridioides difficile,0.5 µg/mL
same,MIC,Cutibacterium acnes,> 128 µg/mL
same,MIC,Bacteroides fragilis [14],1 µg/mL
same,MIC,[15],0.125 µg/mL
same,MIC,Eggerthella lenta,0.5 µg/mL
same,MIC,[16],1 µg/mL
same,MIC,[17],2 µg/mL
same,MIC,Bifidobacterium breve,16 µg/mL
same,MIC,Bacteroides fragilis [18],1 µg/mL
same,MIC,[19],> 128 µg/mL
same,MIC,[20],> 128 µg/mL
same,MIC,[21],8 µg/mL
same,MIC,Thomasclavelia ramosa,2 µg/mL
same,MIC,Lactobacillus salivarius,> 128 µg/mL
